Organism: Rattus norvegicus
Test: Open TG-GATES - Regimen: Daily Repeat
Type: toxicity, organism-based, Sprague-Dawley
Parameters: regimen Daily Repeat, gender Male, age 6 weeks
Details: in vivo, po, 100 mg/kg, route gavage, dose level High; for APTT / Bas / Eos / Fbg / Hb / Ht / Lym / MCH / MCHC / MCV / Mono / Neu / PT / Plat / RBC / Ret / WBC: tissue Blood; for KIDNEY_L / KIDNEY_R / KIDNEY_TOTAL: tissue Kidney; for LIVER: tissue Liver; for A/G / ALP / ALT / AST / BUN / CRE / Ca / Cl / DBIL / GLC / IP / K / LDH / Na / PL / RALB / TBIL / TC / TG / TP / gamma-GTP: tissue Plasma

In the case of `O=C1CN(/N=C/c2ccc([N+](=O)[O-])o2)C(=O)N1` [NITROFURANTOIN], the TERMINAL_BW (72 h, time 3 day) is reported as 241.1 g, the APTT (72 h, time 3 day) is reported as 17.7 s and the Bas (72 h, time 3 day) is reported as 0%. For the same molecule, the Eos (72 h, time 3 day) was 1%, the Fbg (72 h, time 3 day) was 231 mg/dL and the Hb (72 h, time 3 day) was 13.4 g/dL. It also gave a Ht (72 h, time 3 day) of 37.9%, a Lym (72 h, time 3 day) of 77.8% and an MCH (72 h, time 3 day) of 21.4 pg. The MCHC (72 h, time 3 day) was 35.5%, the MCV (72 h, time 3 day) was 60.5 fL and the Mono (72 h, time 3 day) was 3.2%. The Neu (72 h, time 3 day) was 15.2%, the PT (72 h, time 3 day) was 12.4 s and the Plat (72 h, time 3 day) was 130.5 x10_4/uL. It also gave an RBC (72 h, time 3 day) of 628.2 x10_4/ul, a Ret (72 h, time 3 day) of 4.9% and a WBC (72 h, time 3 day) of 70.5 x10_2/uL. The KIDNEY_L (72 h, time 3 day) was 1.1 g, the KIDNEY_R (72 h, time 3 day) was 1.1 g and the KIDNEY_TOTAL (72 h, time 3 day) was 2.2 g. The LIVER (72 h, time 3 day) was 11.7 g, the A/G (72 h, time 3 day) was 1.5 and the ALP (72 h, time 3 day) was 909.6 IU/L. It also gave an ALT (72 h, time 3 day) of 35.2 IU/L, an AST (72 h, time 3 day) of 67.8 IU/L and a BUN (72 h, time 3 day) of 14.2 mg/dL. For the same molecule, the CRE (72 h, time 3 day) was 0.4 mg/dL, the Ca (72 h, time 3 day) was 10.6 mg/dL and the Cl (72 h, time 3 day) was 100.6 meq/L. It also gave a DBIL (72 h, time 3 day) of 0.1 mg/dL, a GLC (72 h, time 3 day) of 209.4 mg/dL and an IP (72 h, time 3 day) of 7.1 mg/dL. It also gave a K (72 h, time 3 day) of 3.9 meq/L, an LDH (72 h, time 3 day) of 220.2 IU/L and a Na (72 h, time 3 day) of 139.6 meq/L. It also gave a PL (72 h, time 3 day) of 153.8 mg/dL, an RALB (72 h, time 3 day) of 3.3 g/dL and a TBIL (72 h, time 3 day) of 0.1 mg/dL. It also gave a TC (72 h, time 3 day) of 75 mg/dL, a TG (72 h, time 3 day) of 110.8 mg/dL and a TP (72 h, time 3 day) of 5.4 g/dL. For the same molecule, the gamma-GTP (72 h, time 3 day) was 1 IU/L, the TERMINAL_BW ([…], time 7 day) was 266.8 g and the TERMINAL_BW ([…], time 14 day) was 314.4 g. It also gave a TERMINAL_BW ([…], time 28 day) of 380.6 g, an APTT ([…], time 7 day) of 18.4 s and a Bas ([…], time 7 day) of 0%. The Eos ([…], time 7 day) was 1%, the Fbg ([…], time 7 day) was 217.8 mg/dL and the Hb ([…], time 7 day) was 13.5 g/dL. For the same molecule, the Ht ([…], time 7 day) was 38.1%, the Lym ([…], time 7 day) was 82.6% and the MCH ([…], time 7 day) was 21.6 pg. The MCHC ([…], time 7 day) was 35.4%, the MCV ([…], time 7 day) was 61.1 fL and the Mono ([…], time 7 day) was 2.2%. The Neu ([…], time 7 day) was 13.2%, the PT ([…], time 7 day) was 12.8 s and the Plat ([…], time 7 day) was 124 x10_4/uL. For the same molecule, the RBC ([…], time 7 day) was 624.8 x10_4/ul, the Ret ([…], time 7 day) was 5.1% and the WBC ([…], time 7 day) was 120.6 x10_2/uL. The APTT ([…], time 14 day) was 19.8 s, the Bas ([…], time 14 day) was 0% and the Eos ([…], time 14 day) was 0.8%. For the same molecule, the Fbg ([…], time 14 day) was 225.4 mg/dL, the Hb ([…], time 14 day) was 14.2 g/dL and the Ht ([…], time 14 day) was 40.7%. It also gave a Lym ([…], time 14 day) of 81.8%, an MCH ([…], time 14 day) of 19.8 pg and an MCHC ([…], time 14 day) of 34.8%. It also gave an MCV ([…], time 14 day) of 56.9 fL, a Mono ([…], time 14 day) of 2.2% and a Neu ([…], time 14 day) of 14.4%. For the same molecule, the PT ([…], time 14 day) was 12.4 s, the Plat ([…], time 14 day) was 133.3 x10_4/uL and the RBC ([…], time 14 day) was 717.2 x10_4/ul. For the same molecule, the Ret ([…], time 14 day) was 3.9%, the WBC ([…], time 14 day) was 115.5 x10_2/uL and the APTT ([…], time 28 day) was 20.5 s. For the same molecule, the Bas ([…], time 28 day) was 0%, the Eos ([…], time 28 day) was 1% and the Fbg ([…], time 28 day) was 216.2 mg/dL. For the same molecule, the Hb ([…], time 28 day) was 14.7 g/dL, the Ht ([…], time 28 day) was 42.6% and the Lym ([…], time 28 day) was 83.8%. For the same molecule, the MCH ([…], time 28 day) was 18.9 pg, the MCHC ([…], time 28 day) was 34.6% and the MCV ([…], time 28 day) was 54.7 fL. It also gave a Mono ([…], time 28 day) of 2.4%, a Neu ([…], time 28 day) of 11.4% and a PT ([…], time 28 day) of 12.6 s. The Plat ([…], time 28 day) was 106 x10_4/uL, the RBC ([…], time 28 day) was 780.2 x10_4/ul and the Ret ([…], time 28 day) was 3.2%. It also gave a WBC ([…], time 28 day) of 143.7 x10_2/uL, a KIDNEY_L ([…], time 7 day) of 1.2 g and a KIDNEY_R ([…], time 7 day) of 1.2 g. For the same molecule, the KIDNEY_TOTAL ([…], time 7 day) was 2.5 g, the KIDNEY_L ([…], time 14 day) was 1.4 g and the KIDNEY_R ([…], time 14 day) was 1.4 g. The KIDNEY_TOTAL ([…], time 14 day) was 2.8 g, the KIDNEY_L ([…], time 28 day) was 1.7 g and the KIDNEY_R ([…], time 28 day) was 1.7 g. It also gave a KIDNEY_TOTAL ([…], time 28 day) of 3.3 g, an LIVER ([…], time 7 day) of 12.6 g and an LIVER ([…], time 14 day) of 14.5 g. It also gave an LIVER ([…], time 28 day) of 16.2 g, an A/G ([…], time 7 day) of 1.5 and an ALP ([…], time 7 day) of 995.4 IU/L. It also gave an ALT ([…], time 7 day) of 31.2 IU/L, an AST ([…], time 7 day) of 63.8 IU/L and a BUN ([…], time 7 day) of 16 mg/dL. The CRE ([…], time 7 day) was 0.4 mg/dL, the Ca ([…], time 7 day) was 10.8 mg/dL and the Cl ([…], time 7 day) was 102.2 meq/L. For the same molecule, the DBIL ([…], time 7 day) was 0.1 mg/dL, the GLC ([…], time 7 day) was 187 mg/dL and the IP ([…], time 7 day) was 7 mg/dL. For the same molecule, the K ([…], time 7 day) was 4.1 meq/L, the LDH ([…], time 7 day) was 218.8 IU/L and the Na ([…], time 7 day) was 140.4 meq/L. The PL ([…], time 7 day) was 142.4 mg/dL, the RALB ([…], time 7 day) was 3.4 g/dL and the TBIL ([…], time 7 day) was 0.2 mg/dL. For the same molecule, the TC ([…], time 7 day) was 70.2 mg/dL, the TG ([…], time 7 day) was 111 mg/dL and the TP ([…], time 7 day) was 5.7 g/dL. The gamma-GTP ([…], time 7 day) was 1 IU/L, the A/G ([…], time 14 day) was 1.4 and the ALP ([…], time 14 day) was 864.2 IU/L. It also gave an ALT ([…], time 14 day) of 34.8 IU/L, an AST ([…], time 14 day) of 74 IU/L and a BUN ([…], time 14 day) of 15.4 mg/dL. For the same molecule, the CRE ([…], time 14 day) was 0.4 mg/dL, the Ca ([…], time 14 day) was 10.3 mg/dL and the Cl ([…], time 14 day) was 102.2 meq/L. It also gave a DBIL ([…], time 14 day) of 0.084 mg/dL, a GLC ([…], time 14 day) of 214.8 mg/dL and an IP ([…], time 14 day) of 6.6 mg/dL. The K ([…], time 14 day) was 3.5 meq/L, the LDH ([…], time 14 day) was 208.8 IU/L and the Na ([…], time 14 day) was 140.8 meq/L. The PL ([…], time 14 day) was 158.8 mg/dL, the RALB ([…], time 14 day) was 3.4 g/dL and the TBIL ([…], time 14 day) was 0.1 mg/dL. For the same molecule, the TC ([…], time 14 day) was 79.2 mg/dL, the TG ([…], time 14 day) was 110 mg/dL and the TP ([…], time 14 day) was 6 g/dL. For the same molecule, the gamma-GTP ([…], time 14 day) was 1.6 IU/L, the A/G ([…], time 28 day) was 1.5 and the ALP ([…], time 28 day) was 573.8 IU/L. It also gave an ALT ([…], time 28 day) of 35.4 IU/L, an AST ([…], time 28 day) of 63.8 IU/L and a BUN ([…], time 28 day) of 15 mg/dL. For the same molecule, the CRE ([…], time 28 day) was 0.5 mg/dL, the Ca ([…], time 28 day) was 10.3 mg/dL and the Cl ([…], time 28 day) was 104 meq/L. The DBIL ([…], time 28 day) was 0.1 mg/dL, the GLC ([…], time 28 day) was 218.6 mg/dL and the IP ([…], time 28 day) was 6 mg/dL. The K ([…], time 28 day) was 3.7 meq/L, the LDH ([…], time 28 day) was 159.4 IU/L and the Na ([…], time 28 day) was 141.2 meq/L. It also gave a PL ([…], time 28 day) of 155.2 mg/dL, an RALB ([…], time 28 day) of 3.6 g/dL and a TBIL ([…], time 28 day) of 0.2 mg/dL. For the same molecule, the TC ([…], time 28 day) was 75.6 mg/dL, the TG ([…], time 28 day) was 109.8 mg/dL and the TP ([…], time 28 day) was 6 g/dL. The gamma-GTP ([…], time 28 day) was 0.8 IU/L.

— ChEMBL document CHEMBL3885861, “Open TG-GATES”
